The values below come from patent US11168073B2, “3,3-difluoroallylamines or salts thereof and pharmaceutical compositions comprising the same” (YUHAN CORPORATION, priority 2018, dated 2021).

Holding throughout (assay type): biochemical
For experiment [1], the target named is T1, recombinant human MAO-B (monoamine oxidase-B) (Homo sapiens, UniProt P27338).
T1 construct: purchased Sigma-Aldrich
T1 sequence (P27338 1-520): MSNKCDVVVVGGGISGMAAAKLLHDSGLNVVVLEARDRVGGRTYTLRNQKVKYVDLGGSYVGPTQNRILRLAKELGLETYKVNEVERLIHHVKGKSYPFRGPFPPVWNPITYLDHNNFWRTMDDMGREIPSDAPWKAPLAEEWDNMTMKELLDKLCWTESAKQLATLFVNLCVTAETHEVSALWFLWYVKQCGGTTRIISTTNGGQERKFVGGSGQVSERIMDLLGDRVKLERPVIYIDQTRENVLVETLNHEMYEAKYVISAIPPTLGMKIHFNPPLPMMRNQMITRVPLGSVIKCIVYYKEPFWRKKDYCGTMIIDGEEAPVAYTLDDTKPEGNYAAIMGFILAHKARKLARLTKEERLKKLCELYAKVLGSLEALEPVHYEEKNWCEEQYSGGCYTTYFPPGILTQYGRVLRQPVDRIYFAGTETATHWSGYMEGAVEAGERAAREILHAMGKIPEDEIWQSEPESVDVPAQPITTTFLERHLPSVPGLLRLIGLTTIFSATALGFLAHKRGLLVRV
In words: Activity evaluation on recombinant human MAO-B (Amplex Red/HRP-coupled assay, 1 mM benzylamine substrate). To be noted: read-out: Inhibitory Activity (IC50, nM) MAO-B. In a few lines: (§1)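 Enzyme was preincubated with compounds (8-point 1:3 series, final DMSO <1%) 30 min at 37 °C in 50 mM sodium phosphate pH 7.4, then given 200 uM Amplex Red and 1 U/mL HRP with substrate. H2O2-derived resorufin fluorescence (ex 544/em 590 nm) was followed over 1–2 h; IC50 came from 4-parameter logistic fits of signal-rate inhibition versus DMSO control.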

Experiment [2] has as its target T2, recombinant human DAO (diamine oxidase) (Homo sapiens, UniProt P19801).
T2 construct: purchased R&D systems
T2 sequence (P19801 20-751): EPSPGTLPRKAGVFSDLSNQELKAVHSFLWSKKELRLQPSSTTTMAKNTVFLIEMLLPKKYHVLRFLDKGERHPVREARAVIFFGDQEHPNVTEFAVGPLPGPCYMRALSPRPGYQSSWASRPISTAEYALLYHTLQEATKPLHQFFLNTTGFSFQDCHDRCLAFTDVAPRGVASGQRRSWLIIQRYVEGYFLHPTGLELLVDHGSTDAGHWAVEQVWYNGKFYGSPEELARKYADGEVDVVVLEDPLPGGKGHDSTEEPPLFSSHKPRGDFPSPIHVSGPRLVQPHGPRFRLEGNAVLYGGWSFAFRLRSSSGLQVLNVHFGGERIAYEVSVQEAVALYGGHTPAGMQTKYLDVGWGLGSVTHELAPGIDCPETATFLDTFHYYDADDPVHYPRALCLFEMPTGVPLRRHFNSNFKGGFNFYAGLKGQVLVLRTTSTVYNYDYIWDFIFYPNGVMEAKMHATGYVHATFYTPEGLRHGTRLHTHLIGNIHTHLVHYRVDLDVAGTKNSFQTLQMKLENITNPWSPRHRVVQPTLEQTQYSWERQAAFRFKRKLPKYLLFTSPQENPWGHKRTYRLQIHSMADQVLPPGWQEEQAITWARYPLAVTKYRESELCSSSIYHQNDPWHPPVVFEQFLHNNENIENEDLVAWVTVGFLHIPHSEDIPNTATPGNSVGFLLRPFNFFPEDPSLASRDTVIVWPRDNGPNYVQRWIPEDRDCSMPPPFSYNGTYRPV
In words: Activity evaluation on recombinant human DAO (Amplex Red/HRP-coupled assay, 1 mM putrescine substrate). To be noted: read-out: Inhibitory Activity (IC50, nM) DAO. The method in brief:
as §1

Experiment [3] addresses T3, recombinant human VAP-1 (Homo sapiens, UniProt Q16853).
T3 construct: purchased R&D systems
T3 sequence (Q16853 1-763): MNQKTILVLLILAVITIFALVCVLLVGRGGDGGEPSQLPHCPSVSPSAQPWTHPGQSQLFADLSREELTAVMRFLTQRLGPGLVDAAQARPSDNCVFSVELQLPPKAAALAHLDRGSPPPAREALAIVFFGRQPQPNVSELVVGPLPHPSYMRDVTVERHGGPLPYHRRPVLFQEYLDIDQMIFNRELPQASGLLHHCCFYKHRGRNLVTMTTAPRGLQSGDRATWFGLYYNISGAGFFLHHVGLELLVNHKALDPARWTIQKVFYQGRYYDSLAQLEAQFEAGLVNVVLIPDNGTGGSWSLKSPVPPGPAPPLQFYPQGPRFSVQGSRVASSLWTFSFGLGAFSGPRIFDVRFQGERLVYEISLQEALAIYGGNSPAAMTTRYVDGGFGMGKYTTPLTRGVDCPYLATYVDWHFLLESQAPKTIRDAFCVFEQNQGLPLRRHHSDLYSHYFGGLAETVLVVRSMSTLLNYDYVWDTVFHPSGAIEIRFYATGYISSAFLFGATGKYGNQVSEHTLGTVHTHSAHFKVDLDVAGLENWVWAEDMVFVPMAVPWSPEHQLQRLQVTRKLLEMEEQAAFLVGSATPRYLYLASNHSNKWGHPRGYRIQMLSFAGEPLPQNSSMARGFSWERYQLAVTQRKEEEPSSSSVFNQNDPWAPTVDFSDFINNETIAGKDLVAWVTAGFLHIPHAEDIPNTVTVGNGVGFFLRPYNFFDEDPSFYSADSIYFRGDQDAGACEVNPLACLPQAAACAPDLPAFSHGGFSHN
In words: Activity evaluation on recombinant human VAP-1 (Amplex Red/HRP-coupled hydrogen peroxide assay, benzylamine substrate). The settings on record: read-out: Inhibitory Activity (IC50, nM) human VAP-1. The method in brief:
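Recombinant human VAP-1 in 50 mM sodium phosphate pH 7.4 preincubated 30 min at 37 °C with compound (8-point 1:3 series, <1% DMSO), then 1 mM benzylamine, 200 uM Amplex Red, 1 U/mL HRP added. H2O2-derived resorufin fluorescence (ex 544/em 590) followed 1–2 h; IC50 from four-parameter fit of rate inhibition.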

The target in experiment [4] is T4, recombinant human MAO-A (monoamine oxidase-A) (Homo sapiens, UniProt P21397).
T4 construct: purchased Sigma-Aldrich
T4 sequence (P21397 1-527): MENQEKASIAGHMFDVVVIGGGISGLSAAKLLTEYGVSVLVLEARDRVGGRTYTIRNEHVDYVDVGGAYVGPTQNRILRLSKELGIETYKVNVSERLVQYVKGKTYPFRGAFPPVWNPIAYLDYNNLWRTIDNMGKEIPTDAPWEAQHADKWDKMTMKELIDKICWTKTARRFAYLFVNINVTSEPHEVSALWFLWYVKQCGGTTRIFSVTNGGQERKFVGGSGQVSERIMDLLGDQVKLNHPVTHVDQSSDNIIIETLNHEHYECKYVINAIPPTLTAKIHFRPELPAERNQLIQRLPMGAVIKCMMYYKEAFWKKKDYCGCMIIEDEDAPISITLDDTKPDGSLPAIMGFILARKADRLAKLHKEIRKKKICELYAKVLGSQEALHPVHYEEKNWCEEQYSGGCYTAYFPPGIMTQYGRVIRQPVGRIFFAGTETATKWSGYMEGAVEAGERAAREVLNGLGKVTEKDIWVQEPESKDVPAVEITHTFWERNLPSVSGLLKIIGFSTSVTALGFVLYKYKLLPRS
Nature of the experiment: Activity evaluation on recombinant human MAO-A (Amplex Red/HRP-coupled assay, 0.5 mM tyramine substrate). The settings on record: read-out: Inhibitory Activity (IC50, nM) MAO-A. In a few lines:
as §1

Setting [5] is: recombinant human VAP-1, benzylamine substrate.
[6] abbreviates: recombinant human VAP-1, 30 min preincubation at 37° C., 1 mM benzylamine.

Molecules are shown by their SMILES. Where a name gives a salt, the structure may show the parent alone. Read-outs that look alike come from different tables or passages of the source.

One may read the IC50 as the concentration at which inhibition is half-maximal. For `CN1Cc2cc(-c3ccc(Cn4cnn(CC(CN)=C(F)F)c4=O)s3)ccc2NC1=O` [Example 182, 6-[5-[[1-[2-(aminomethyl)-3,3-difluoro-allyl]-5-oxo-1,2,4-triazol-4-yl]methyl]-2-thienyl]-3-methyl-1,4-dihydroquinazolin-2-one Trifluoroacetate], the IC50 in experiment [1] (1 mM benzylamine substrate) is above 100000 nM; in experiment [2] (1 mM putrescine substrate) it was above 100000 nM; in experiment [3] (setting [5]), 0.2 nM; in experiment [4] (0.5 mM tyramine substrate) it was above 100000 nM.

`NCC(Cn1ncn(Cc2ccc(C#Cc3ccc4c(n3)OCCN4)s2)c1=O)=C(F)F` [Example 168, 2-[2-(aminomethyl)-3,3-difluoro-allyl]-4-[[5-[2-(2,3-dihydro-1H-pyrido[2,3-b][1,4]oxazin-6-yl)ethynyl]-2-thienyl]methyl]-1,2,4-triazol-3-one Ditrifluoroacetate]: the IC50 in experiment [1] (1 mM benzylamine) was 45000 nM; in experiment [2] (1 mM putrescine) it was above 100000 nM; in experiment [3] (setting [6]), 1 nM; in experiment [4] (0.5 mM tyramine), above 10000 nM.

As to `CCn1cc(-c2ccc(Cn3cnn(CC(CN)=C(F)F)c3=O)s2)ccc1=O` [Example 122, 5-[5-[[1-[2-(aminomethyl)-3,3-difluoro-allyl]-5-oxo-1,2,4-triazol-4-yl]methyl]-2-thienyl]-1-ethyl-pyridin-2-one Trifluoroacetate], the IC50 in experiment [1] (1 mM benzylamine) is 25000 nM; in experiment [2] (1 mM putrescine), 54000 nM; in experiment [3] (setting [6]), 0.4 nM; in experiment [4] (0.5 mM tyramine), above 100000 nM.

`Cc1cc(-c2ccc3sc(N)nc3c2)cnc1-n1cnn(CC(CN)=C(F)F)c1=O` [Example 226, 4-[5-(2-amino-1,3-benzothiazol-5-yl)-3-methyl-2-pyridyl]-2-[2-(aminomethyl)-3,3-difluoro-allyl]-1,2,4-triazol-3-one Trifluoroacetate]: the IC50 in experiment [1] (1 mM benzylamine substrate) is 11000 nM; in experiment [2] (1 mM putrescine substrate), above 100000 nM; in experiment [3] (setting [5]), 0.5 nM; in experiment [4] (0.5 mM tyramine substrate), above 100000 nM.

Regarding `CN(C)c1ccc(-c2cc(F)c(Cn3cnn(CC(CN)=C(F)F)c3=O)s2)cn1` [Example 303, 2-(2-(aminomethyl)-3,3-difluoroallyl)-4-((5-(6-(dimethylamino)pyridin-3-yl)-3-fluorothiophen-2-yl)methyl)-2,4-dihydro-3H-1,2,4-triazol-3-one trifluoroacetate], the IC50 in experiment [1] (1 mM benzylamine substrate) was above 100000 nM; in experiment [2] (1 mM putrescine substrate) it was above 100000 nM; in experiment [3] (setting [5]), 0.8 nM; in experiment [4] (0.5 mM tyramine substrate), above 100000 nM.

For `Cc1cc(-c2ccc(-n3cnn(CC(CN)=C(F)F)c3=O)c(F)c2)cc2c1NC(=O)CC2` [Example 36, 6-[4-[1-[2-(aminomethyl)-3,3-difluoro-allyl]-5-oxo-1,2,4-triazol-4-yl]-3-fluoro-phenyl]-8-methyl-3,4-dihydro-1H-quinolin-2-one Trifluoroacetate], the IC50 is 160 nM in experiment [1] (1 mM benzylamine), 97 nM in experiment [2] (1 mM putrescine), 0.1 nM in experiment [3] (setting [6]) and above 100000 nM in experiment [4] (0.5 mM tyramine).

For `NCC(Cn1ncn(-c2cccc(-c3ccc(C(=O)N4CCOCC4)cc3)n2)c1=O)=C(F)F` [Example 214, 2-[2-(aminomethyl)-3,3-difluoro-allyl]-4-[6-[4-(morpholine-4-carbonyl)phenyl]-2-pyridyl]-1,2,4-triazol-3-one Trifluoroacetate], the IC50 in experiment [1] (1 mM benzylamine substrate) was above 100000 nM; in experiment [2] (1 mM putrescine substrate), 940 nM; in experiment [3] (setting [5]) it was 1.7 nM; in experiment [4] (0.5 mM tyramine substrate), above 100000 nM.

Regarding `Cc1cc(-c2cc(F)c(Cn3cnn(CC(CN)=C(F)F)c3=O)s2)cc2c1NC(=O)CC2` [Example 304, 6-(5-((1-(2-(aminomethyl)-3,3-difluoroallyl)-5-oxo-1,5-dihydro-4H-1,2,4-triazol-4-yl)methyl)-4-fluorothiophen-2-yl)-8-methyl-3,4-dihydroquinolin-2(1H)-one Trifluoroacetate], the IC50 in experiment [1] (1 mM benzylamine substrate) was above 100000 nM; in experiment [2] (1 mM putrescine substrate), 12600 nM; in experiment [3] (setting [5]), 0.7 nM; in experiment [4] (0.5 mM tyramine substrate) it was above 100000 nM.

On to `Cc1cc(-n2cnn(CC(CN)=C(F)F)c2=O)cnc1-c1ccc2c(c1)OCO2` [Example 79, 2-[2-(aminomethyl)-3,3-difluoro-allyl]-4-[6-(1,3-benzodioxol-5-yl)-5-methyl-3-pyridyl]-1,2,4-triazol-3-one Trifluoroacetate], for which the IC50 in experiment [1] (1 mM benzylamine) is 910 nM; in experiment [2] (1 mM putrescine) it was 200 nM; in experiment [3] (setting [6]) it was 0.9 nM; in experiment [4] (0.5 mM tyramine) it was above 100000 nM.

Consider `NCC(Cn1ncn(Cc2ccc(-c3ccc4c(c3)NC(=O)CO4)s2)c1=O)=C(F)F` [Example 141, 6-[5-[[1-[2-(aminomethyl)-3,3-difluoro-allyl]-5-oxo-1,2,4-triazol-4-yl]methyl]-2-thienyl]-4H-1,4-benzoxazin-3-one Trifluoroacetate], for which the IC50 was 20000 nM in experiment [1] (1 mM benzylamine), 16000 nM in experiment [2] (1 mM putrescine), 0.6 nM in experiment [3] (setting [6]) and 8100 nM in experiment [4] (0.5 mM tyramine).
